Measurements reported in US11331299B2, “Medicinal use of serrulatane diterpenes” (The University of Sydney, priority 2016, dated 2022).
Where two headings read alike, the source gives them in different places.

Test system: 280 human cancer cell lines
Experiment: OncoPanel cell proliferation assay (10-day)
Assay type: cell-based
Details: Homo sapiens; for IC50: read-out: Cell Count IC50; for EC50: read-out: Cell Count EC50
[1] = SW872, SW872, Soft Tissue - Sarcoma
[2] = SW 954, SW954, Female GU - Vulva
[3] = SW982, SW982, Soft Tissue - Sarcoma
[4] = SW1353, SW1353, Soft Tissue - Osteosarcoma
[5] = TE 125.T, Soft Tissue - Sarcoma
[6] = TE 381.T, Soft Tissue - Sarcoma
[7] = U2OS, Soft Tissue - Osteosarcoma
[8] = U-118-MG, U-118 MG, CNS - Glioma
[9] = VA-ES-BJ, Soft Tissue - Sarcoma
[10] = WM 266-4, WM-266-4, Skin (Melanoma)

CC(C)=CCC[C@H](C)[C@@H]1CC[C@@H](C)c2c1cc(C)c(O)c2O [Compound 4, 7,8-dihydroxyserrulat-14-ene]
GI50 (SW837, SW837, Colon, read-out: Cell Count GI50): 18.7 µM | IC50 (SW837, SW837, Colon): 18.9 µM | EC50 [1]: 4.39 µM | GI50 (SW872, SW872, Soft Tissue - Sarcoma, read-out: Cell Count GI50): 4.38 µM | IC50 [1]: 4.39 µM | EC50 (SW900, SW900, Lung - SCLC): 23.3 µM | GI50 (SW900, SW900, Lung - SCLC, read-out: Cell Count GI50): 23.1 µM | IC50 (SW900, SW900, Lung - SCLC): 23.3 µM | EC50 (SW948, SW948, Colon): 29.7 µM | GI50 (SW948, SW948, Colon, read-out: Cell Count GI50): > 30 µM | IC50 (SW948, SW948, Colon): > 30 µM | EC50 [2]: 21.7 µM | GI50 (SW 954, SW954, Female GU - Vulva, read-out: Cell Count GI50): 21.6 µM | IC50 [2]: 21.7 µM | EC50 [3]: 7.29 µM | GI50 (SW982, SW982, Soft Tissue - Sarcoma, read-out: Cell Count GI50): 7.26 µM | IC50 [3]: 7.3 µM | EC50 (SW1088, SW1088, CNS - Glioma): 8.77 µM | GI50 (SW1088, SW1088, CNS - Glioma, read-out: Cell Count GI50): 8.69 µM | IC50 (SW1088, SW1088, CNS - Glioma): 8.77 µM | EC50 [4]: 4.15 µM | GI50 (SW1353, SW1353, Soft Tissue - Osteosarcoma, read-out: Cell Count GI50): 4.14 µM | IC50 [4]: 4.15 µM | EC50 (SW1417, SW1417, Colon): > 30 µM | GI50 (SW1417, SW1417, Colon, read-out: Cell Count GI50): 29.3 µM | IC50 (SW1417, SW1417, Colon): > 30 µM | EC50 (SW1463, SW1463, Colon): 29.4 µM | GI50 (SW1463, SW1463, Colon, read-out: Cell Count GI50): 29.5 µM | IC50 (SW1463, SW1463, Colon): 29.6 µM | EC50 (SW1783, SW1783, CNS - Glioma): 12.3 µM | GI50 (SW1783, SW1783, CNS - Glioma, read-out: Cell Count GI50): 12.1 µM | IC50 (SW1783, SW1783, CNS - Glioma): 12.3 µM | EC50 (SW-403, SW403, Colon): > 30 µM | GI50 (SW-403, SW403, Colon, read-out: Cell Count GI50): > 30 µM | IC50 (SW-403, SW403, Colon): > 30 µM | EC50 (SW-620, SW620, Colon): 11.3 µM | GI50 (SW-620, SW620, Colon, read-out: Cell Count GI50): 11.3 µM | IC50 (SW-620, SW620, Colon): 11.3 µM | EC50 (SiHa, Female GU - Cervix): 11.3 µM | GI50 (SiHa, Female GU - Cervix, read-out: Cell Count GI50): 13.2 µM | IC50 (SiHa, Female GU - Cervix): 13.5 µM | EC50 (T24, Bladder): 12.2 µM | GI50 (T24, Bladder, read-out: Cell Count GI50): 12.2 µM | IC50 (T24, Bladder): 12.2 µM | EC50 (T47D, Breast): 3.28 µM | GI50 (T47D, Breast, read-out: Cell Count GI50): 2.92 µM | IC50 (T47D, Breast): 3.28 µM | EC50 (T98G, CNS - Glioma): 24.5 µM | GI50 (T98G, CNS - Glioma, read-out: Cell Count GI50): 24.5 µM | IC50 (T98G, CNS - Glioma): 24.5 µM | EC50 (TCC-SUP, TCCSUP, Bladder): 8.91 µM | GI50 (TCC-SUP, TCCSUP, Bladder, read-out: Cell Count GI50): 8.67 µM | IC50 (TCC-SUP, TCCSUP, Bladder): 8.91 µM | EC50 [5]: 23.6 µM | GI50 (TE 125.T, Soft Tissue - Sarcoma, read-out: Cell Count GI50): 17 µM | IC50 [5]: 23.6 µM | EC50 [6]: 6.28 µM | GI50 (TE 381.T, Soft Tissue - Sarcoma, read-out: Cell Count GI50): 6.08 µM | IC50 [6]: 6.28 µM | EC50 (TF-1, Leukemia): 6.57 µM | GI50 (TF-1, Leukemia, read-out: Cell Count GI50): 6.26 µM | IC50 (TF-1, Leukemia): 6.57 µM | EC50 (THP-1, Thp1, Leukemia): 12 µM | GI50 (THP-1, Thp1, Leukemia, read-out: Cell Count GI50): 11.9 µM | IC50 (THP-1, Thp1, Leukemia): 12 µM | EC50 (TUR, Lymphoma): 8.98 µM | GI50 (TUR, Lymphoma, read-out: Cell Count GI50): 8.98 µM | IC50 (TUR, Lymphoma): 8.98 µM | EC50 [7]: 4.21 µM | GI50 (U2OS, Soft Tissue - Osteosarcoma, read-out: Cell Count GI50): 4.2 µM | IC50 [7]: 4.21 µM | EC50 (U138-MG, U-138MG, CNS - Glioma): 25 µM | GI50 (U138-MG, U-138MG, CNS - Glioma, read-out: Cell Count GI50): 24.9 µM | IC50 (U138-MG, U-138MG, CNS - Glioma): 25 µM | EC50 (U266B1, Myeloma): 10.1 µM | GI50 (U266B1, Myeloma, read-out: Cell Count GI50): 9.81 µM | IC50 (U266B1, Myeloma): 10.1 µM | EC50 (U-87 MG, CNS - Glioma): 13.8 µM | GI50 (U-87 MG, CNS - Glioma, read-out: Cell Count GI50): 13.6 µM | IC50 (U-87 MG, CNS - Glioma): 13.8 µM | EC50 [8]: 13.9 µM | GI50 (U-118-MG, U-118 MG, CNS - Glioma, read-out: Cell Count GI50): 13.6 µM | IC50 [8]: 13.9 µM | EC50 (UMUC3, UM-UC-3, Bladder): 3.83 µM | GI50 (UMUC3, UM-UC-3, Bladder, read-out: Cell Count GI50): 3.82 µM | IC50 (UMUC3, UM-UC-3, Bladder): 3.83 µM | EC50 [9]: 15.2 µM | GI50 (VA-ES-BJ, Soft Tissue - Sarcoma, read-out: Cell Count GI50): 15 µM | IC50 [9]: 15.2 µM | EC50 [10]: 10.9 µM | GI50 (WM 266-4, WM-266-4, Skin (Melanoma), read-out: Cell Count GI50): 10.8 µM | IC50 [10]: 10.9 µM | EC50 (WiDr, Colon): 12.8 µM | GI50 (WiDr, Colon, read-out: Cell Count GI50): 12.8 µM | IC50 (WiDr, Colon): 12.8 µM | EC50 (Y79, Eye): 5.65 µM | GI50 (Y79, Eye, read-out: Cell Count GI50): 5.34 µM | IC50 (Y79, Eye): 5.65 µM | EC50 (YAPC, Pancreas): 18 µM | GI50 (YAPC, Pancreas, read-out: Cell Count GI50): 18.2 µM | IC50 (YAPC, Pancreas): 18.2 µM | GI50 (strong: Daudi, DOHH-2, GA-10, L-428, ST486, MX1, NALM-6, T47D, CEM-C1, A-673, read-out: GI50): 1.23 to 2.92 µM
